# Literature values as cited in paper PMC2747598 (Journal of the American Chemical Society, 2009).
# Tested on: HeLa cells
# Details: unconjugated complexes
row,Compound,Mode of cellular uptake
1,[Ru+2].c1ccc(-c2ccccn2)nc1.c1ccc(-c2ccccn2)nc1.c1ccc2nc3c4cccnc4c4ncccc4c3nc2c1 [Ru(bpy)2dppz^2+],enter by passive diffusion and do not exhibit punctate staining
2,Ru(phen)2dppz^2+,enter by passive diffusion and do not exhibit punctate staining
3,Ru(phen)(bpy′)(dppz)^2+,enter by passive diffusion and do not exhibit punctate staining
